Series [1] relates to hepatitis B surface antigen (HBsAg). In words: Determination of hepatitis B surface antigen (HBsAg) in HepG2.2.15 cell supernatant. Type of series: cell-based, hepatitis B virus (HepG2.2.15 cells). To be noted: Hepatitis B virus, HepG2.2.15, 96 h, read-out: HBsAg inhibitory activity IC50. As for the experimental part:
(§1) The full genome of HBV was inserted into an […] cell, which could therefore express HBV continuously (Sells et al, Proc Natl Acad Sci USA. 1987 February; 84 (4):1005-9). The culture condition was DMEM medium containing 10% serum and […] G418. Cells were placed in an incubator containing 5% CO2 and cultured at 37° C.
HepG2.2.15 cells were seeded into a 96-well culture plate at a density of 3×10^4 cells/well. On the next day, the drug dissolved in DMSO was subjected to a 5-fold dilution and then added to the cells. 0.5% DMSO was added separately as control. The supernatant was collected after 4 days of drug action, and the content of hepatitis B surface antigen was determined.
The determination of hepatitis B surface antigen was carried out by using a kit for quantitative determination of hepatitis B virus surface antigen (chemiluminescence method). The specific operations were as follows. 50 μL cell culture supernatant was taken and transferred to the assay plate. 50 μL of enzyme-linked reagent was added thereto and the assay plate was sealed. Incubation was carried out at room temperature for 1 hour. Afterwards, the assay plate was washed six times with PBS, and finally, the residual liquid was removed by shaking the plate. 25 μL of substrates A and B were added respectively, and the determination was conducted by using a microplate reader (Tecan Infinite® F200) after ten minutes of reaction. IC50 was calculated after fitting the dose-response curve.

A further series deals with HBV DNA. Nature of the series: Determination of HBV DNA in HepG2.2.15 cell supernatant by qPCR. Type of series: cell-based, hepatitis B virus (HepG2.2.15 cells). As to conditions: Hepatitis B virus, 168 h, HepG2.2.15 cells, supernatant after a total of 7 days of drug action, read-out: Inhibitory activity against HBV DNA IC50. The method, then:
as §1
HepG2.2.15 cells were seeded into a 96-well culture plate at a density of 4×10^4 cells/well. After 4 hours, the drug dissolved in DMSO was subjected to a 4-fold dilution and then added to cells. 0.5% DMSO was added separately as control. On the 4th day of drug action, the original supernatant was removed and then the drug was added thereto again. The supernatant was collected after a total of 7 days of drug action and treated with lysis buffer. The determination of hepatitis B DNA was carried out by real-time fluorescence-based quantitative polymerase chain reaction (qPCR). After the completion of the qPCR, data were exported from the instrument and analyzed, and IC50 indicating antiviral activity was calculated after fitting the dose-response curve.
For orientation: In qPCR the cycle at which signal appears reflects the starting amount.

Series [2] in a line: Pharmacokinetic experiments in ICR mice (plasma). Type of series: in vivo. As to conditions: for AUC(0-t): read-out: AUC0-12. The method, then:
Multiple compounds in the Examples of the present disclosure were administered to ICR mice to conduct pharmacokinetic experiments. A single intravenous injection (with a dose of 2 mg/kg) and a single oral administration (with a dose of 10 mg/kg) were administered respectively. Blood was respectively collected prior to administration and 5 minutes, 15 minutes, 30 minutes, 1 hour, 2 hours, 4 hours, 8 hours, 12 hours and 24 hours after administration, and the concentration of the test compound in plasma was determined. Plasma pharmacokinetic data of the control compound (obtained from Example 28 in patent WO2018130152 A1) and the compounds of Examples 10 and 19 in the present disclosure in mice were as shown in the following Table 5 to Table 7.

Where [3] appears, read: mouse, single intravenous injection 2 mg/kg, plasma.
[4] abbreviates: mouse, single oral administration 10 mg/kg, plasma.

Where two headings read alike, the source gives them in different places.

The term IC50 denotes the point on the concentration scale where inhibition reaches its midpoint. Consider `COc1cc2c(cc1-c1cnc(N3CCC(O)CC3)s1)CC(C(C)(C)C)n1cc(C(=O)O)c(=O)cc1-2` (centres unmarked) [Example 1, 6-tert-butyl-9-[2-(4-hydroxypiperidin-1-yl)thiazol-5-yl]-10-methoxy-2-oxo-6,7-dihydro-2H-pyrido[2,1-a]isoquinoline-3-carboxylic Acid], for which the IC50 in series [1] was determined as 0.33 nM. As to `COc1cc2c(cc1-c1cnc(N3CCC(CO)CC3)s1)CC(C(C)(C)C)n1cc(C(=O)O)c(=O)cc1-2` (centres unmarked) [Example 2, 6-tert-butyl-9-{2-[4-(hydroxymethyl)piperidin-1-yl]thiazol-5-yl}-10-methoxy-2-oxo-6,7-dihydro-2H-pyrido[2,1-a]isoquinoline-3-carboxylic Acid], the IC50 in the series on HBV DNA was 0.11 nM; in series [1], 0.06 nM. For the compound `COc1cc2c(cc1-c1cnc(N3CCC3)s1)CC(C(C)(C)C)n1cc(C(=O)O)c(=O)cc1-2` (centres unmarked) [Example 3, 9-[2-(azetidin-1-yl)thiazol-5-yl]-6-tert-butyl-10-methoxy-2-oxo-6,7-dihydro-2H-pyrido[2,1-a]isoquinoline-3-carboxylic Acid], the IC50 in series [1] was 0.07 nM.

On to `COc1cc2c(cc1-c1cnc(N3CC(F)(F)C3)s1)CC(C(C)(C)C)n1cc(C(=O)O)c(=O)cc1-2` (centres unmarked) [Example 4, 6-tert-butyl-9-[2-(3,3-difluoroazetidin-1-yl)thiazol-5-yl]-10-methoxy-2-oxo-6,7-dihydro-2H-pyrido[2,1-a]isoquinoline-3-carboxylic Acid], for which the figures for the IC50 (in the series on HBV DNA; in series [1]) were 0.26 nM and 0.045 nM, respectively.

For the compound `COc1cc2c(cc1-c1cnc(N3CCOCC3)s1)CC(C(C)(C)C)n1cc(C(=O)O)c(=O)cc1-2` (centres unmarked) [Example 5, 6-tert-butyl-10-methoxy-9-(2-morpholinothiazol-5-yl)-2-oxo-6,7-dihydro-2H-pyrido[2,1-a]isoquinoline-3-carboxylic Acid], the IC50 in series [1] was 0.3 nM. `COc1cc2c(cc1-c1cnc(N(C)C)s1)CC(C(C)(C)C)n1cc(C(=O)O)c(=O)cc1-2` (centres unmarked) [Example 6, 6-tert-butyl-9-[2-(dimethylamino)thiazol-5-yl]-10-methoxy-2-oxo-6,7-dihydro-2H-pyrido[2,1-a]isoquinoline-3-carboxylic Acid]: the half-maximal inhibitory concentration (IC50) in series [1] was found to be 0.3 nM. With `COc1cc2c(cc1-c1cnc(N3CCC(C)(O)CC3)s1)CC(C(C)(C)C)n1cc(C(=O)O)c(=O)cc1-2` (centres unmarked) [Example 7, 6-tert-butyl-9-[2-(4-hydroxy-4-methylpiperidin-1-yl)thiazol-5-yl]-10-methoxy-2-oxo-6,7-dihydro-2H-pyrido[2,1-a]isoquinoline-3-carboxylic Acid], the IC50 is 0.15 nM with HBV DNA and 0.08 nM in series [1]. In the case of `COc1cc2c(cc1-c1cnc(N3CCC(OC)CC3)s1)CC(C(C)(C)C)n1cc(C(=O)O)c(=O)cc1-2` (centres unmarked) [Example 8, 6-tert-butyl-10-methoxy-9-[2-(4-methoxypiperidin-1-yl)thiazol-5-yl]-2-oxo-6,7-dihydro-2H-pyrido[2,1-a]isoquinoline-3-carboxylic Acid], the IC50 in series [1] is 0.2 nM. Regarding `COc1cc2c(cc1-c1cnc(N3CC(OC)C3)s1)CC(C(C)(C)C)n1cc(C(=O)O)c(=O)cc1-2` (centres unmarked) [Example 9, 6-tert-butyl-10-methoxy-9-[2-(3-methoxyazetidin-1-yl)thiazol-5-yl]-2-oxo-6,7-dihydro-2H-pyrido[2,1-a]isoquinoline-3-carboxylic Acid], the IC50 was 0.1 nM in the series on HBV DNA and 0.03 nM in series [1]. With `COc1ncc(-c2cc3c(cc2OC)-c2cc(=O)c(C(=O)O)cn2C(C(C)(C)C)C3)s1` (centres unmarked) [Example 12, 6-tert-butyl-10-methoxy-9-(2-methoxythiazol-5-yl)-2-oxo-6,7-dihydro-2H-pyrido[2,1-a]isoquinoline-3-carboxylic Acid], the concentration for half-maximal inhibition (IC50) in series [1] was determined as 0.45 nM. On the same count and under the same terms, the figure for `CCOCc1ncc(-c2cc3c(cc2OC)-c2cc(=O)c(C(=O)O)cn2C(C(C)(C)C)C3)s1` (centres unmarked) [Example 14, 6-tert-butyl-9-[2-(ethoxymethyl)thiazol-5-yl]-10-methoxy-2-oxo-6,7-dihydro-2H-pyrido[2,1-a]isoquinoline-3-carboxylic Acid] is 0.2 nM; for `COc1cc2c(cc1-c1cnc(C(C)OC)s1)CC(C(C)(C)C)n1cc(C(=O)O)c(=O)cc1-2` (centres unmarked) [Example 15, 6-tert-butyl-10-methoxy-9-[2-(1-methoxyethyl)thiazol-5-yl]-2-oxo-6,7-dihydro-2H-pyrido[2,1-a]isoquinoline-3-carboxylic Acid] it is 0.2 nM. With `COc1cc2c(cc1-c1cnc(C(C)(C)OC)s1)CC(C(C)(C)C)n1cc(C(=O)O)c(=O)cc1-2` (centres unmarked) [Example 17, 6-tert-butyl-10-methoxy-9-[2-(2-methoxypropan-2-yl)thiazol-5-yl]-2-oxo-6,7-dihydro-2H-pyrido[2,1-a]isoquinoline-3-carboxylic Acid], in series [1], the IC50 was 0.3 nM. A word on the bioavailability: it is the share of a dose that reaches the circulation, judged against a reference dose that is usually intravenous. Usually AUC(0-inf) stands for total exposure, with the tail of the curve extrapolated. The low end stands for less exposure, the high end for more exposure. As a reminder, the Cmax is the maximum level reached in the sampled fluid or tissue. For orientation: Tmax means the time at which the peak concentration occurs. Usually clearance stands for a measure of how efficiently the substance is removed, as volume per time. Lower therefore signals inefficient removal. In general, half-life refers to the time needed for the level to fall by half in the phase considered. The low end stands for rapid decline, the high end for slow decline. In the case of `CNC(=O)c1ncc(-c2cc3c(cc2OC)-c2cc(=O)c(C(=O)O)cn2C(C(C)(C)C)C3)s1` (centres unmarked) [Example 19, 6-tert-butyl-10-methoxy-9-[2-(methylcarbamoyl)thiazol-5-yl]-2-oxo-6,7-dihydro-2H-pyrido[2,1-a]isoquinoline-3-carboxylic Acid], the bioavailability in series [2] (mouse, plasma, oral 10 mg/kg vs intravenous 2 mg/kg, read-out: F (bioavailability)) is 87%. Moreover, in series [2] (setting [3]), the AUC(0-inf) was determined as 1210 ng·h/mL, the peak level (Cmax) was 1020 ng/mL, the Tmax was 4.8 min and the clearance is 27.6 mL/min/kg. For the same compound, in series [2] (setting [3]), the half-life was 78 min and the AUC(0-t) worked out at 1200 ng·h/mL. For the same compound, the Vd in series [2] (mouse, single intravenous injection 2 mg/kg, plasma, read-out: Vss) turned out to be 2.27 L/kg. In series [2] (setting [4]), the AUC(0-inf) amounted to 5290 ng·h/mL, the Cmax was 2420 ng/mL, the Tmax was found to be 30 min and the half-life was 150 min. The AUC(0-t) in series [2] (setting [4]) was determined as 5210 ng·h/mL. The “plasma exposure compared with the control compound” value in series [2] (same dose, after intravenous injection and oral administration) is reported as “significantly higher”. Also, the IC50 in series [1] was 0.3 nM.

On to `CCNC(=O)c1ncc(-c2cc3c(cc2OC)-c2cc(=O)c(C(=O)O)cn2C(C(C)(C)C)C3)s1` (centres unmarked) [Example 20, 6-tert-butyl-9-[2-(ethylcarbamoyl)thiazol-5-yl]-10-methoxy-2-oxo-6,7-dihydro-2H-pyrido[2,1-a]isoquinoline-3-carboxylic Acid], for which the half-maximal inhibitory concentration (IC50) in series [1] is 0.3 nM. Same read-out and setting: the result for `COCCOc1ncc(-c2cc3c(cc2OC)-c2cc(=O)c(C(=O)O)cn2C(C(C)(C)C)C3)s1` (centres unmarked) [Example 21, 6-tert-butyl-10-methoxy-9-[2-(2-methoxyethoxy)thiazol-5-yl]-2-oxo-6,7-dihydro-2H-pyrido[2,1-a]isoquinoline-3-carboxylic Acid] reads 0.3 nM.

Consider `COCCNC(=O)c1ncc(-c2cc3c(cc2OC)-c2cc(=O)c(C(=O)O)cn2C(C(C)(C)C)C3)s1` (centres unmarked) [Example 22, 6-tert-butyl-10-methoxy-9-{2-[(2-methoxyethyl)carbamoyl]thiazol-5-yl}-2-oxo-6,7-dihydro-2H-pyrido[2,1-a]isoquinoline-3-carboxylic Acid], for which, in series [1], the IC50 was 0.4 nM.

For the compound `COc1cc2c(cc1-c1cnc(C3CC(F)(F)C3)s1)CC(C(C)(C)C)n1cc(C(=O)O)c(=O)cc1-2` (centres unmarked) [Example 25, 6-tert-butyl-9-[2-(3,3-difluorocyclobutyl)thiazol-5-yl]-10-methoxy-2-oxo-6,7-dihydro-2H-pyrido[2,1-a]isoquinoline-3-carboxylic Acid], the IC50 in series [1] stood at 0.24 nM. Consider `COc1cc2c(cc1-c1cnc(C3CC(F)C3)s1)CC(C(C)(C)C)n1cc(C(=O)O)c(=O)cc1-2` (centres unmarked) [Example 26, 6-tert-butyl-9-[2-(3-fluorocyclobutyl)thiazol-5-yl]-10-methoxy-2-oxo-6,7-dihydro-2H-pyrido[2,1-a]isoquinoline-3-carboxylic Acid], for which the IC50 in series [1] is 0.1 nM. With `COc1cc2c(cc1-c1cnc(C3CC(OC)C3)s1)CC(C(C)(C)C)n1cc(C(=O)O)c(=O)cc1-2` (centres unmarked) [Example 27, 6-tert-butyl-10-methoxy-9-[2-(3-methoxycyclobutyl)thiazol-5-yl]-2-oxo-6,7-dihydro-2H-pyrido[2,1-a]isoquinoline-3-carboxylic Acid], the IC50 in series [1] worked out at 0.1 nM.

These data come from patent US20220081434A1, “DIHYDROISOQUINOLINE COMPOUND” (SUZHOU ARK BIOPHARMACEUTICAL CO., LTD., priority 2019, published 2022).
